Source: PubChem BioAssay AID328 (DTP/NCI, 2004)
Values joined by “and” are separate entries in the source; they are usually repeats but may differ in a detail not shown here. Identical values can stand only once. Inconclusive results and toxic doses are left out.

System: BDF1 mice, P388 leukemia ip, median survival T/C
Assay: NCI In Vivo Anticancer Drug Screen. Data for tumor model P388 Leukemia (intraperitoneal) in B6D2F1 (BDF1) mice
Conditions: endpoint: median survival time, higher = longer survival
Summary of the method: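 Antitumour effect was judged in vivo: survival in drug-treated mice, normalised to that of vehicle-dosed controls, gives the reported T/C.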

[1] = dose: 200.0 mg/kg/injection, schedule: Q01DX009 (ip), vehicle: saline with Tween-80
[2] = dose: 100.0 mg/kg/injection, schedule: Q04DX003 (ip), vehicle: saline
[3] = dose: 200.0 mg/kg/injection, schedule: Q04DX003 (ip), vehicle: saline
[4] = dose: 400.0 mg/kg/injection, schedule: Q04DX003 (ip), vehicle: saline

COP(=S)(NC(C)C)Oc1ccc(C)cc1[N+](=O)[O-] (stereo not given)
T/C (dose: 1.56 mg/kg/injection, schedule: Q01DX009 (ip), vehicle: saline with Tween-80): 106 % of control
T/C (dose: 3.13 mg/kg/injection, schedule: Q01DX009 (ip), vehicle: saline with Tween-80): 89 % of control
T/C (dose: 6.25 mg/kg/injection, schedule: Q01DX009 (ip), vehicle: saline with Tween-80): 97 % of control
T/C (dose: 12.5 mg/kg/injection, schedule: Q01DX009 (ip), vehicle: saline with Tween-80): 100 % of control

COc1ccc(Cc2ccc(O)cc2)cc1
T/C (dose: 100.0 mg/kg/injection, schedule: Q04DX003 (ip), vehicle: other): 100 % of control
T/C (dose: 200.0 mg/kg/injection, schedule: Q04DX003 (ip), vehicle: other): 119 % of control
T/C (dose: 400.0 mg/kg/injection, schedule: Q04DX003 (ip), vehicle: other): 119 % of control

CCC(CO)NC(=O)/C=C/c1ccccc1Cl (stereo not given)
T/C [1]: 91 % of control

CCOCCOCCOCCCNCCCN1CC1
T/C (dose: 50.0 mg/kg/injection, schedule: Q01DX009 (ip), vehicle: saline): 187 % of control
T/C (dose: 100.0 mg/kg/injection, schedule: Q01DX009 (ip), vehicle: saline): 95 % of control
T/C [2]: 177 % of control
T/C [3]: 190 % of control

Cc1ncc([N+](=O)[O-])n1CCSC(Cl)(Cl)Cl
T/C [3]: 101 % of control
T/C [4]: 111 % of control

c1ccc(-c2nc3ccccc3nc2-c2ccc(-c3ccc(-c4nc5ccccc5nc4-c4ccccc4)cc3)cc2)cc1
T/C (dose: 50.0 mg/kg/injection, schedule: Q01DX009 (ip), vehicle: saline with Tween-80): 88 % of control
T/C [1]: 88 % of control

COc1ccc2c3csc4ccccc4c-3nc2c1
T/C (dose: 12.5 mg/kg/injection, schedule: Q01DX009 (ip), vehicle: Klucel (hydroxypropylcellulose) (HPC)): 109 % of control
T/C (dose: 25.0 mg/kg/injection, schedule: Q01DX009 (ip), vehicle: Klucel (hydroxypropylcellulose) (HPC)): 109 % of control
T/C (dose: 25.0 mg/kg/injection, schedule: Q04DX003 (ip), vehicle: Klucel (hydroxypropylcellulose) (HPC)): 100 % of control and 122 % of control
T/C (dose: 50.0 mg/kg/injection, schedule: Q04DX003 (ip), vehicle: Klucel (hydroxypropylcellulose) (HPC)): 109 % of control
T/C (dose: 75.0 mg/kg/injection, schedule: Q01DX001 (ip), vehicle: Klucel (hydroxypropylcellulose) (HPC)): 112 % of control
T/C (dose: 100.0 mg/kg/injection, schedule: Q04DX003 (ip), vehicle: Klucel (hydroxypropylcellulose) (HPC)): 104 % of control and 105 % of control
T/C (dose: 150.0 mg/kg/injection, schedule: Q01DX001 (ip), vehicle: Klucel (hydroxypropylcellulose) (HPC)): 100 % of control

CC(=O)c1ccccc1OCC(O)CN1CCN(c2ccccc2Cl)CC1 (stereo not given)
T/C (dose: 37.5 mg/kg/injection, schedule: Q04DX003 (ip), vehicle: saline with Tween-80): 100 % of control
T/C (dose: 75.0 mg/kg/injection, schedule: Q04DX003 (ip), vehicle: saline with Tween-80): 109 % of control
T/C (dose: 150.0 mg/kg/injection, schedule: Q04DX003 (ip), vehicle: saline with Tween-80): 90 % of control

CC(C)CCCBr
T/C (dose: 100.0 mg/kg/injection, schedule: Q01DX009 (ip), vehicle: saline with Tween-80): 118 % of control
T/C (dose: 100.0 mg/kg/injection, schedule: Q04DX003 (ip), vehicle: saline with Tween-80): 108 % of control
T/C [1]: 113 % of control
T/C (dose: 200.0 mg/kg/injection, schedule: Q04DX003 (ip), vehicle: saline with Tween-80): 112 % of control
T/C (dose: 400.0 mg/kg/injection, schedule: Q01DX009 (ip), vehicle: saline with Tween-80): 122 % of control
T/C (dose: 400.0 mg/kg/injection, schedule: Q04DX003 (ip), vehicle: saline with Tween-80): 108 % of control

C[N+](C)(C)CCO
T/C [2]: 100 % of control
T/C [3]: 105 % of control
T/C [4]: 110 % of control
